One data set deals with Vero 76 cells. The conditions noted are these: African green monkey.
A further data set deals with SARS-CoV-2 virus. The experiment in a line: In vitro viricidal assay against SARS-CoV-2 (CCID50 end-point titer on Vero 76 cells). The conditions noted are these: 22 ± 2° C.; for Log Reduction Value (LRV): compared to the virus control; for Virus Titer: mean of 3 replicates.

Molecules are shown by their SMILES.

For the compound `CCO` [CE19, Ethanol], in the data set with Vero 76 cells, the “dilutions of the neutralized sample showing toxicity toward Vero 76 cells” value was 1/10 dilution. Further, the “Log Reduction Value (LRV)” value came out at 2.4 in the data set on SARS-CoV-2 virus (incubation time 0.5 min), 2.1 with SARS-CoV-2 virus (incubation time 1 min) and 2.3 with SARS-CoV-2 virus (incubation time 2 min). Moreover, the “Virus Titer” value with SARS-CoV-2 virus (incubation time 0.5 min), in the data set on SARS-CoV-2 virus (incubation time 1 min) and in the data set on SARS-CoV-2 virus (incubation time 2 min) was <1.7 Log10 CCID50 of virus per mL in each case.

The record behind these values is US12485140B2, “Transmission prevention of viruses with application of antiseptic composition” (Solventum Intellectual Properties Company, priority 2019, dated 2025).
